Like-named read-outs stand apart in the source and are kept apart here.
How the values were obtained:
[1] = biological target: T1, p300 (Homo sapiens, UniProt Q09472); test: In vitro HAT assay with recombinant p300, histones and 14C acetyl-CoA; type: biochemical; details: for IC50: in vitro HAT assay, recombinant p300 and histones, read-out: IC50, p300 acetyltransferase activity
T1 construct: in vitro acetylation assays with purified histones and a recombinant p300 catalytic domain; purchased Enzo Life Sciences
T1 sequence (Q09472 1287-1663 limits assumed): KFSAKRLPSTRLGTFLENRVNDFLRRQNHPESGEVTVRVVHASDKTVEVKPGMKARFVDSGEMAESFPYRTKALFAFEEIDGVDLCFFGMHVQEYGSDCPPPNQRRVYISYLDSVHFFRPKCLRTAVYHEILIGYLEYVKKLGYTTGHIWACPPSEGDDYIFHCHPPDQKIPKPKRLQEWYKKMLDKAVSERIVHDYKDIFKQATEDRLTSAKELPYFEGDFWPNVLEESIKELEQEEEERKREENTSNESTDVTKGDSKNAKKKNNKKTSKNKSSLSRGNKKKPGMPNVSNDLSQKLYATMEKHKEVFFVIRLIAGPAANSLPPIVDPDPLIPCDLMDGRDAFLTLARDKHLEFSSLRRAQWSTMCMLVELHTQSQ
Procedure: To determine whether salicylate inhibits p300 and other acetyltransferases, we used in vitro acetylation assays with purified histones and a recombinant p300 catalytic domain.
Figure 1. Salicylate inhibits CBP/p300 in vitro. (A) Recombinant p300, CBP, GCN5, or PCAF and histones were incubated with ^14C-labeled acetyl-CoA with or without sodium salicylate, separated by SDS-PAGE, analyzed by autoradiography, and quantified with Image J software. Acetylation levels are relative to those in untreated controls. (B) Thermal stability assay for sodium salicylate binding to the p300 HAT domain. Tm, melting temperature. (C) and (D) Lineweaver-Burk plots showing kinetic analysis of p300 acetyltransferase inhibition by sodium salicylate. Histone acetylation was measured with several concentrations of acetyl-CoA (C) or histone (D) in the presence or absence of sodium salicylate. DOI: http://dx.doi.org/10.7554/eLife.11156.003 Figure 1—figure supplement 1. […] (A) Dose-response data for inhibition of p300 by salicylate and salicyl-CoA. Acetylation of an H4(3–14) peptide was monitored using direct microfluidic mobility shift analysis as previously described ([Montgomery et al., 2014]; [Fanslau et al., 2010]). Error is given as the 95% confidence interval. […] Error is given as the 95% confidence interval. DOI: http://dx.doi.org/10.7554/eLife.11156.004 [drawing 1] TEXT PRINTED IN THE PICTURE: (A) Salicylate: p300 IC50 (mM): 6.12; Confidence Interval [CI95] (mM): 5.2–7.2 | (A) Salicyl-CoA: p300 IC50 (mM): […]; Confidence Interval [CI95] […] (mM): 0.78–1.4 | (B) Diflunisal-CoA: p300 IC50 (mM): 0.02; Confidence Interval [CI95] (mM): 0.02–0.03
Recombinant HAT ([…]), either p300, CBP, PCAF, or GCN5 (Enzo Life Sciences), and 10 µg of histones (Sigma) were incubated with sodium salicylate (Sigma) in reaction buffer (50 mM HEPES, pH 8.0, 10% glycerol, 1 mM) at 30°C for 30 min and then with 0.1 mCi of ^14C acetyl-CoA at 30°C for 60 min. Reactions were stopped by adding 6x sample buffer and analyzed by SDS-PAGE. The gels were dried, and signals were obtained by autoradiography and quantified with Image J software. To quantify acetylated histone levels, we generated a standard curve from signals of lanes loaded with […] of ^14C labeled histones.

[2] = test system: histone acetylation (H2BK12/K15) in HEK293T cells; test: Site-specific histone acetylation in HEK293T cells by Western blot; type: cell-based; details: for Deacetylation of specific histone residues: Western blot; for IC50: Homo sapiens, HEK-293T
Procedure: To determine whether salicylate induces histone deacetylation directly in cells, we treated HEK293T cells with various concentrations of salicylate.
Figure 2. Salicylate inhibits specific lysine acetylation of histone and nonhistone proteins independently of AMPK activation. […] HEK293T cells were treated with the indicated concentrations of sodium salicylate for 24 hr. Site-specific histone acetylation was detected by Western blot with specific antisera. Bands were quantified with Image J software. Acetylation was normalized to that of untreated cells and plotted. Representative results are shown in Supplementary Figure 1. Experiments are repeated and error bars indicate SEM. […] HEK293T cells were transfected with increasing amounts of expression vectors for p300 or F1504A or PCAF, treated with sodium salicylate for 24 hr, and analyzed by Western blotting analysis with an antiserum specific for acetyl histone H2BK12/K15. Bands were quantified with Image J software. Acetylation was normalized to that of untreated control. Average levels of relative acetylation are plotted and error bars indicate SEM. Representative results are shown in Supplementary Figure 2—figure supplement 2. (E) IC50 values generated from all curves in panel (B) and (D) were plotted against the amount of plasmid transfected (p300 or PCAF). (F), (G) HEK293 T cells were transfected with expression vectors for p300 and NF-κB p65 (F) or p53 (G), treated with salicylate for 24 hr, and analyzed by Western blot with specific antibodies against acetyl NF-κBK310 (F) or acetyl p53K382 and acetyl H2BK12/15 (G). Compound C (10 μM), a specific AMPK inhibitor, was added to salicylate-treated cells for 24 hr before Western blot (G). KR, p65 K310R mutant DOI: http://dx.doi.org/10.7554/eLife.11156.005 Figure 2—figure supplement 1. Salicylate induces histone deacetylation in HEK293T cells HEK293T cells were treated with sodium salicylate as indicated for 24 hr, immediately lysed in Laemmli buffer, and then subjected to western blot analysis with the indicated antibodies. Histones H2A, H2B, H3 and H4 were used as input loading controls. Experiments are repeated five times and representative data are shown. DOI: http://dx.doi.org/10.7554/eLife.11156.006 [drawing 2] Figure 2—figure supplement 2. Salicylate-induced deacetylation of histone H2B can be rescued by overexpression of p300, but not PCAF, in a dose-dependent manner. (A) Overexpression of p300 but not PCAF specifically leads to hyperacetylation of histone H2B. […] H2B acetylation was measured by western blot and the specified antibodies. (B) Overexpression of p300 but not PCAF rescued salicylate-induced H2B deacetylation in a dose-dependent manner. […] H2B acetylation was measured by Western Blot and the specified antibodies. […]

For O=C(O)c1ccccc1O [salicylate, salicylic acid], which “Mode of p300 inhibition against acetyl-CoA” value ([1]; Lineweaver-Burk, various concentrations of acetyl-CoA) is on record?
The value was “direct competitive p300 inhibition against acetyl-CoA”.

What about the “Mode of p300 inhibition against histones” value ([1]; Lineweaver-Burk, various concentrations of histone) of the same molecule?
Its value is “noncompetitive inhibition against histones”.

And the IC50 [1]?
The IC50 was 10200 µM.

What about the “Deacetylation of specific histone residues” value ([2]; HEK293T cells, 24 hr) of the same molecule?
The value was “deacetylation of H2AK5/K9, H2BK12/K15, and H3K56 in a dose-dependent manner”.

What about the IC50 ([2]; HEK293T cells, 24 hr, read-out: IC50 for inhibition of H2B acetylation) of the same molecule?
The IC50 was 4800 µM.

How did the IC50 [1] turn out when O=C(O)c1cc(-c2ccc(F)cc2F)ccc1O [diflunisal] was run?
The IC50 was 996 µM.

And the “Deacetylation of specific histone residues” value ([2]; HEK293T cells, 24 hr)?
Its value is “induced deacetylation of specific histone residues, H2AK5, K9, H2BK12/K15, H3K56”.

What about the IC50 ([2]; 24 h, read-out: IC50 for H2BK12/K15 inhibition in cells) of the same molecule?
Its IC50 is 160 µM.

From PMC4931907 (eLife, 2016)
